In patent US6399614B1, “1-(N-phenylaminoalkyl)piperazine derivatives substituted at position 2 of the phenyl ring” (Recordati S.A. Chemical and Pharmaceutical Company, priority 1997, dated 2002):
pKi: −log10 of the molar value.

Assays:
[1] = target: T1, post-synaptic 5-HT1A receptor (Rattus norvegicus, UniProt P19327); assay: Inhibition of forepaw treading induced by 8-OH-DPAT in rats (post-synaptic antagonism); assay type: in vivo; conditions: for ED50: rat, iv, read-out: Post-synaptic 5-HT1A ID50, heading: Post-synaptic 5-HT1A ID50, dose blocking 50% of forepaw treading induced by 1 mg/kg s.c. 8-OH-DPAT in rats, compound i.v.
T1 construct: from tissue; host or cells: whole animal, male Sprague-Dawley rats
T1 sequence (P19327 1-422): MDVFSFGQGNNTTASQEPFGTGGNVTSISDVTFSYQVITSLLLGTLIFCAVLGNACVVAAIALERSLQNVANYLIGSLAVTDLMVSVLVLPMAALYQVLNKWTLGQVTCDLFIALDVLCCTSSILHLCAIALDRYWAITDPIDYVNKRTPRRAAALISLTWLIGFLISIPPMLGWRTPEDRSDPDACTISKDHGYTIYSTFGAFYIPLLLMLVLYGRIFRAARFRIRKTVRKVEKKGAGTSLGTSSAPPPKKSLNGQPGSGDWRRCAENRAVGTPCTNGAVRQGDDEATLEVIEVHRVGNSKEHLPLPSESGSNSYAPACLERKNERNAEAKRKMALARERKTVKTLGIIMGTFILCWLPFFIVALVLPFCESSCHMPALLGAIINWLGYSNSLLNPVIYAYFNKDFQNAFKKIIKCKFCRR
Protocol: The inhibitory effect of 5-HT1A receptor antagonists on the forepaw treading induced in rats by subcutaneous injection of 8-OH-DPAT was evaluated by the method of Tricklebank (Tricklebank et al., Eur. J.Pharmacol., 117:15, 1985) with minor modifications as described below. Male Sprague-Dawley rats (150-175 g) obtained from Charles River (Italy), were housed in a climate-controlled room and maintained on a 12 h light/dark cycle with free access to food and water. On the day of experiment, rats were placed singly in clear plastic boxes. Rats were treated with reserpine, 1 mg/kg s.c., 18-24 h before the test to deplete intracellular stores of noradrenaline. For evaluation of antagonistic activity, compounds were i.v. administered 16 min before 8-OH-DPAT (1 mg/kg s.c.). Observation sessions of 30 s duration began 3 min after treatment with the agonist and were repeated every 3 min over a period of 15 min. The appearance of the forepaw treading symptom induced by postsynaptic stimulation of the 5HT1A receptors was noted, and its intensity was scored using a ranked intensity scale in which: 0=absent, 1=equivocal, 2=present and 3=intense. Behavioral scores for each treated rat were accumulated over the time course (5 observation periods) and expressed as mean values of 8-10 rats. A linear regression equation was used in order to evaluate ID50 values, defined as the dose of antagonist needed to block 50% of the forepaw treading intensity induced by 1 mg/kg 8-OH-DPAT administered subcutaneously.

[2] = target: T2, human 5-HT1A serotonergic receptor (Homo sapiens, UniProt P08908); assay: Radioreceptor binding, recombinant human 5-HT1A receptors ([3H]8-OH-DPAT, HeLa membranes); conditions: for pKi: recombinant human receptor, [3H]8-OH-DPAT, Ki from IC50 by Cheng & Prusoff, read-out: Binding affinity for the 5-HT1A receptor, Ki
T2 construct: expressed in transfected cells; host or cells: HeLa
T2 sequence (P08908 1-422): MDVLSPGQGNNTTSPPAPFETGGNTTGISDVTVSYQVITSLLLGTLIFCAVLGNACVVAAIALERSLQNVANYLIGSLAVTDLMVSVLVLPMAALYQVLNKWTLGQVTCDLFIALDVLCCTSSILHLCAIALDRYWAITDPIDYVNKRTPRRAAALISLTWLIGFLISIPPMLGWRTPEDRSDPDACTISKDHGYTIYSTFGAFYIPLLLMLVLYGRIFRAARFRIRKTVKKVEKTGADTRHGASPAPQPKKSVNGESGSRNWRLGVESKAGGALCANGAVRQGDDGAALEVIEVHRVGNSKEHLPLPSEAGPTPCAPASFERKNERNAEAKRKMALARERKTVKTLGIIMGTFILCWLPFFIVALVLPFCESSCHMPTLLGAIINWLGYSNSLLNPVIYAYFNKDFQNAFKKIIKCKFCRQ
Method in brief: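 Membranes from HeLa cells stably transfected with human 5-HT1A clone G-21 incubated 30 min at 30° C with 0.2-1 nM [3H]8-OH-DPAT in 50 mM Tris HCl pH 7.4, 2.5 mM MgCl2, 10 μM pargiline; nonspecific binding with 10 μM 5-HT. Filtration assay; IC50 from curve fitting converted to Ki by Cheng-Prusoff.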

Structure (SMILES)	ED50 [1] [mg/kg]	pKi [2]	fold less active than compound of Example 2, post-synaptic model ([1]; forepaw treading model in rats)	affinity for 5-HT1A receptors (in words) [2]
O=C(C1CCCCC1)N(CCN1CCN(c2cccc3[nH]ccc23)CC1)c1ccccc1[N+](=O)[O-] [Example 13, 1-[N-(2-nitrophenyl)-N-cyclohexylcarbonyl-2-aminoethyl]-4-(4-indolyl)piperazine]	0.082	9.30		
COc1ccccc1N1CCN(CCN(C(=O)C2CCCCC2)c2ccccc2OC)CC1 [Example 23, 1-[N-(2-methoxyphenyl)-N-cyclohexylcarbonyl-2-aminoethyl]-4-(2-methoxyphenyl)piperazine]	0.177	9.85		
COc1ccccc1N1CCN(CCN(C(=O)C2CCCCC2)c2ccccc2)CC1 [Compound A, 1-(N-phenyl-N-cyclohexylcarbonyl-2-aminoethyl)-4-(2-methoxyphenyl)piperazine, reference compound]	0.35		at least 10 fold	very high affinity
COC(=O)c1ccccc1N(CCN1CCN(c2ccccc2OC)CC1)C(=O)C1CCCCC1 [Example 18, 1-[N-(2-methoxycarbonylphenyl)-N-cyclohexylcarbonyl-2-aminoethyl]-4-(2-methoxyphenyl)piperazine]	0.084	9.22		
COc1ccccc1N1CCN(CCN(C(=O)C2CCCCC2)c2ccccc2[N+](=O)[O-])CC1 [Example 2, 1-[N-(2-nitrophenyl)-N-cyclohexylcarbonyl-2-aminoethyl]-4-(2-methoxyphenyl) piperazine]	0.036			very high affinity
